“And” between values parts separate entries of the source, which are not always exact repeats. Identical values can stand only once. “Also recorded” adds a separate entry of the source. Like-named read-outs stand apart in the source and are kept apart here.
Experiments:
[1] = system: emmetropic and presbyopic subjects, non-dominant eye; assay: Examples 7 and 13 crossover trial: near visual acuity, combined vs separate 3% carbachol and 0.2% brimonidine, carbachol alone, brimonidine alone; format: in vivo, human; conditions: for NVA (mean near visual acuity): mean ± SD, ten subjects, pre-treatment 8.6 ± 1.5
Description: Participants were volunteers selected at random.
(§1) A prospective, double-masked, randomized, controlled clinical trial was conducted.
Participants were randomly selected volunteers.
(§2) The 3% carbachol drops included 50 ppm of benzalkonium chloride.

[2] = system: emmetropic and presbyopic subjects, non-dominant eye; assay: Examples 7 and 13 crossover trial: pupil size (Colvard infrared pupilometer); format: in vivo, human; conditions: for PS (mean pupil size): mean ± SD, ten subjects, pre-treatment 4.3 ± 0.5
Description: as §1, §2

[3] = system: presbyopic subjects, non-dominant eye; assay: Example 8 dose range studies of carbachol and pilocarpine with and without brimonidine: near visual acuity (LogMAR) and pupil diameter; format: in vivo, human; conditions: for change in LogMAR VA, pilocarpine vs carbachol, each plus 0.2% brimonidine: FIGS. 12 and 13
Description: Dose range studies were performed for carbachol and pilocarpine. […] Pilocarpine and carbachol were also compared to each other, with and without brimonidine.

[4] = system: emmetropic, myopic and hyperopic presbyopes
presbyopic subjects [5] = conditions: subjects receiving brimonidine drops
presbyopic subjects [6] = assay: Example 8 dose range studies: tolerability, adverse symptoms and satisfaction survey
Description: Both Groups 1 and 2 received the same pre- and post-treatment work-up and measurements: Age, gender, initial pupil size, and near vision acuity (NVA) were documented.
The survey asked the patients whether they would use the drops again.

[7] = Example 8: stability of pilocarpine at neutral pH; format: physicochemical; conditions: needs about pH 5
[8] = FDA product insert for isoptocarpine; cited from earlier work

C[N+](C)(C)CCOC(N)=O [3% carbachol alone, carbachol]
NVA (mean near visual acuity) ([1]; 1-h post-treatment): 5.5 ± 1 J | NVA (mean near visual acuity) ([1]; 2-h post-treatment): 5.9 ± 0.8 J | NVA (mean near visual acuity) ([1]; 4-h post-treatment): 7 ± 1.2 J | NVA (mean near visual acuity) ([1]; 8-h post-treatment): 7.5 ± 1 J | mean near visual acuity (NVA) ([1]; 1 h post-treatment, before treatment J 8.6±1.5, 10 subjects crossover): 5.5 ± 1 J | mean near visual acuity (NVA) ([1]; 2 h post-treatment): 5.9 ± 0.8 J | mean near visual acuity (NVA) ([1]; 4 h post-treatment): 7 ± 1.2 J | mean near visual acuity (NVA) ([1]; 8 h post-treatment): 7.5 ± 1 J | hours in which mean near visual acuity (NVA) was ≥20/40 ([1]; emmetropic presbyopes, FIG. 25): never achieved an NVA of ≥20/40 | PS (mean pupil size) ([2]; 1-h post-treatment): 2.8 ± 0.3 mm | PS (mean pupil size) ([2]; 2-h post-treatment): 3 ± 0.3 mm | PS (mean pupil size) ([2]; 4-h post-treatment): 3.5 ± 0.3 mm | PS (mean pupil size) ([2]; 8-h post-treatment): 4 ± 0.3 mm | mean pupil size (PS) ([2]; 1 h post-treatment, before treatment 4.3±0.5 mm): 2.8±0.3 mm | mean pupil size (PS) ([2]; 2 h post-treatment): 3±0.3 mm | mean pupil size (PS) ([2]; 4 h post-treatment): 3.5±0.3 mm | mean pupil size (PS) ([2]; 8 h post-treatment): 4±0.3 mm | hours in which mean pupil size reached the target pupil size of <2.5 mm ([2]; emmetropic presbyopes, FIG. 24): never achieved the target pupil size during hours 1-8

Brc1c(NC2=NCCN2)ccc2nccnc12 [Brimonidine 0.2%, brimonidine]
NVA (mean near visual acuity) ([1]; 1-h post-treatment): 7.7 ± 1.3 J | NVA (mean near visual acuity) ([1]; 2-h post-treatment): 8.2 ± 1.3 J | NVA (mean near visual acuity) ([1]; 4-h post-treatment): 8.5 ± 1.4 J | NVA (mean near visual acuity) ([1]; 8-h post-treatment): 8.6 ± 1.5 J | difference in mean NVA before treatment and at any time point after treatment ([1]; P >0.05): no statistically significant difference | mean change / improvement in near visual acuity compared among combination, separate drops, carbachol alone, brimonidine alone ([1]; over eight hours): the least | PS (mean pupil size) ([2]; 1-h post-treatment): 3.95 ± 0.5 mm | PS (mean pupil size) ([2]; 2-h post-treatment): 4.2 ± 0.4 mm | PS (mean pupil size) ([2]; 4-h post-treatment): 4.3 ± 0.5 mm | PS (mean pupil size) ([2]; 8-h post-treatment): 4.3 ± 0.5 mm | effect on pupil size or NVA ([2]; 50 ppm benzalkonium chloride): virtually no effect | difference in mean PS before treatment and at any time point after treatment ([2]; P >0.05): no statistically significant difference | miotic effect ([2]; first hour after instillation, light luminance conditions, not significant (P >0.05)): mild miotic effect | synergy with carbachol and pilocarpine ([3]; 0.2% brimonidine): synergistic with both carbachol and pilocarpine | difference in mean NVA before treatment and at any time point after treatment ([4]; Group 1 emmetropic presbyopes): No statistically significant difference in mean NVA | difference in mean NVA before treatment and at any time point after treatment ([4]; Group 2 myopic presbyopes): No statistically significant difference in mean NVA | difference in mean NVA before treatment and at any time point after treatment ([4]; Group 3 hyperopic presbyopes): No statistically significant difference in mean NVA | mild burning sensation, number of subjects (presbyopic subjects [5]): 10 subjects

CC[C@@H]1C(=O)OC[C@@H]1Cc1cncn1C [Pilo Alone]
Pilo Alone 1 hr nVA ([3]; Pilo 0.5%, individual patients): 3 J and 6 J and 5 J | Pilo Alone 1 hr pupil ([3]; Pilo 0.5%, individual patients): 3.8 and 3 (2×) | Pilo Alone 2 hrs nVA ([3]; Pilo 0.5%, individual patients): 5 J (2×) and 3 J (2×) | Pilo Alone 2 hrs pupil ([3]; Pilo 0.5%, individual patients): 3 and 4 and 2.5 and 3.3 | Pilo Alone 4 hrs nVA ([3]; Pilo 0.5%, individual patients): 5 J (3×) and 3 J | Pilo Alone 4 hrs pupil ([3]; Pilo 0.5%, individual patients): 3.3 and 4 and 3 and 4.2 | Pilo Alone 1 hr nVA ([3]; Pilo 1%, individual patients): 3 J (2×) and 2 J and 8 J | Pilo Alone 1 hr pupil ([3]; Pilo 1%, individual patients): 2.5 (2×) and 1.5 and 3 | Pilo Alone 2 hrs nVA ([3]; Pilo 1%, individual patients): 3 J and 2 J (2×) and 8 J | Pilo Alone 2 hrs pupil ([3]; Pilo 1%, individual patients): 3 (2×) and 1.5 and 2.5 | Pilo Alone 4 hrs nVA ([3]; Pilo 1%, individual patients): 5 J (2×) and 3 J and 10 J | Pilo Alone 4 hrs pupil ([3]; Pilo 1%, individual patients): 4 (2×) and 2.5 and 3 | Pilo Alone 1 hr nVA ([3]; Pilo .05%, patient 5): 3 J | Pilo Alone 1 hr pupil ([3]; Pilo .05%, patient 5): 2.5 | Pilo Alone 4 hrs pupil ([3]; Pilo […], individual patients): 4

C[N+](C)(C)CCOC(N)=O [carbachol, reference compound]
change in LogMAR VA, pilocarpine vs carbachol, each plus 0.2% brimonidine [3]: favored carbachol for hours 8 and 10 | duration of effect ([3]; in vivo): 8 h | dose response for tolerability (presbyopic subjects [6]; carbachol […], […], 3% plus brimonidine, seven days, FIG. 15): An inverse dose response

CC[C@@H]1C(=O)OC[C@@H]1Cc1cncn1C [pilocarpine, reference compound]
change in LogMAR VA, pilocarpine vs carbachol, each plus 0.2% brimonidine [3]: favored pilocarpine for hours 1 and 2 | onset and duration of effect ([3]; compared with carbachol): more immediate effect; also recorded: shorter duration | burning (presbyopic subjects [6]; in vivo): burned | stability at neutral pH [7]: unstable at neutral pH | brow ache rate [8]: > 5%

From patent publication US20220257593A1, “CARABACHOL-BROMONIDINE FORMULATION TO ENHANCE ANTI-PRESBYOPIA EFFECTS” (Visus Therapeutics, Inc., priority 2019, published 2022)
